Experimental data: patent publication US11746100B2 (GLOBAL BLOOD THERAPEUTICS, INC., priority 2020, dated 2023)

Target: T1, human ferroportin (Homo sapiens, UniProt Q9NP59)
T1 construct: luciferase reporter (read with the Nano-Glo Luciferase Assay System); expressed in transfected cells; host or cells: CHO cells, stably transfected, expression induced with doxycycline
T1 sequence (Q9NP59 1-571): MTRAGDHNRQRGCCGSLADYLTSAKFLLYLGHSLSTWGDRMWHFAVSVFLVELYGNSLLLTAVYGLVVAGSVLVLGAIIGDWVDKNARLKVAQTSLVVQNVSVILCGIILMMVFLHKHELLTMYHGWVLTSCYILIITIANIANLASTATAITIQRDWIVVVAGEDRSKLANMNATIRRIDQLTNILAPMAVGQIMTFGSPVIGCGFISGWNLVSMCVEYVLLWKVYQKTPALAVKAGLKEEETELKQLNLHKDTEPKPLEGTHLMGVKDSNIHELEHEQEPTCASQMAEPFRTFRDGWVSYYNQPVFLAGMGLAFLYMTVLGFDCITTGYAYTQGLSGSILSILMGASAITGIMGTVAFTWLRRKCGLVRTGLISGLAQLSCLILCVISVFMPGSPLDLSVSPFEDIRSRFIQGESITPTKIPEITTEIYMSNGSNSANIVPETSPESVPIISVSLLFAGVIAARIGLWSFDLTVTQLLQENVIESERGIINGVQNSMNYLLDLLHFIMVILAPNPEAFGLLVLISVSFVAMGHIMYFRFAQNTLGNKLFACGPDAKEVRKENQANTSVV
Test: Biological in-vitro ferroportin internalization assay (luciferase reporter)
Format: cell-based
Details: average pEC50; stably-transfected CHO cell line expressing human ferroportin tagged to a luciferase reporter; 6 h incubation with test compound
Summary of the method: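 Stably transfected CHO cells expressing luciferase-tagged human ferroportin, plated 24 h with ferric ammonium citrate and induced with doxycycline for 24 h. Compounds incubated 6 h, then luciferase activity measured by Nano-Glo; average pEC50 reported.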

| Structure (SMILES) | pEC50 |
| --- | --- |
| COc1ccc(N(C)C(=O)CN(C)c2nc(-c3cc(OCCO)ccn3)nc3c2CCC3)cc1 [Compound 334, 2-({2-[4-(2-hydroxyethoxy)pyridin-2-yl]-5H,6H,7H-cyclopenta[d]pyrimidin-4-yl}(methyl)amino)-N-(4-methoxyphenyl)-N-methylacetamide] | 7.2 |
| COc1ccc2c(c1)CCN2C(=O)CN(C)c1nc(-c2cc(OCCO)ccn2)nc2c1CCC2 [Compound 335, 2-({2-[4-(2-hydroxyethoxy)pyridin-2-yl]-5H,6H,7H-cyclopenta[d]pyrimidin-4-yl}(methyl)amino)-1-(5-methoxy-2,3-dihydro-1H-indol-1-yl)ethan-1-one] | 8.4 |
| CN(CC(=O)NC(C)(C)C)c1nc(-c2cc3cn(C)nc3cn2)nc2c1CCC2 [Compound 336, N-tert-butyl-2-[methyl(2-{2-methyl-2H-pyrazolo[3,4-c]pyridin-5-yl}-5H,6H,7H-cyclopenta[d]pyrimidin-4-yl)amino]acetamide] | 7.8 |
| CN(CC(=O)NC1(C(F)(F)F)CC1)c1nc(-c2cc(OCC(C)(C)O)ccn2)nc2c1CCC2 [Compound 337, 2-({2-[4-(2-hydroxy-2-methylpropoxy)pyridin-2-yl]-5H,6H,7H-cyclopenta[d]pyrimidin-4-yl}(methyl)amino)-N-[1-(trifluoromethyl)cyclopropyl]aceta-mide] | 7.4 |
| CN(CC(=O)NC1(C(F)(F)F)CC1)c1nc(-c2cc(OC3COC3)ccn2)nc2c1CCC2 [Compound 338, 2-[methyl({2-[4-(oxetan-3-yloxy)pyridin-2-yl]-5H,6H,7H-cyclopenta[d]pyrimidin-4-yl})amino]-N-[1-(trifluoromethyl)cyclopropyl]aceta-mide] | 7.1 |
| CN(CC(=O)Nc1ccc(Cl)cc1)c1nc(-c2cc(OCCO)ccn2)nc2c1CCC2 [Compound 339, N-(4-chloropehnyl)-2-({2-[4-(2-hydroxyethoxy)pyridin-2-yl]-5H,6H,7H-cyclopenta[d]pyrimidin-4-yl}(methyl)amino)acetamide] | 8.2 |
| CN(CC(=O)NC12CC(C1)C2)c1nc(-c2cc(OC3COC3)ccn2)nc2c1CCC2 [Compound 340, N-{bicyclo[1.1.1]pentan-1-yl}-2-[methyl({2-[4-(oxetan-3-yloxy)pyridin-2-yl]-5H,6H,7H-cyclopenta[d]pyrimidin-4-yl})amino]acetamide] | 7.7 |
| CN(CC(=O)NC(C)(C)C)c1nc(-c2cc3occc3cn2)nc2c1CCC2 [Compound 341, N-tert-butyl-2-[(2-{furo[3,2-c]pyridin-6-yl}-5H,6H,7H-cyclopenta[d]pyrimidin-4-yl)(methyl)amino]acetamide] | 7.6 |
| CN(CC(=O)N1CCCCC1)c1nc(-c2cc(O[C@@H]3CCOC3)ccn2)nc2c1CCC2 [Compound 342, 2-[methyl(2-{4-[(3R)-oxolan-3-yoxy]pyridin-2-yl}-5H,6H,7H-cyclopenta[d]pyrimidin-4-yl)amino]-1-(piperidin-1-yl)ethan-1-one] | 7.6 |
| CN(CC(=O)N1CCCCC1)c1nc(-c2cc(O[C@H]3CCOC3)ccn2)nc2c1CCC2 [Compound 343, 2-[methyl(2-{4-[(3S)-oxolan-3-yloxy]pyridin-2-yl}-5H,6H,7H-cyclopenta[d]pyrimidin-4-yl)amino]-1-(piperidin-1-yl)ethan-1-one] | 7.7 |
| COc1ccc(NC(=O)CN(C)c2nc(-c3cc(OCCN(C)C)ccn3)nc3c2CCC3)cn1 [Compound 344, 2-[(2-{4-[2-(dimethylamino)ethoxy]pyridin-2-yl}-5H,6H,7H-cyclopenta[d]pyrimidin-4-yl)(methyl)amino]-N-(6-methoxypyridin-3-yl)acetamide] | 7.6 |
| CN(CC(=O)Nc1cccc(F)c1)c1nc(-c2cc(O[C@H]3C[C@@H](O)C3)ccn2)nc2c1CCC2 [Compound 345, N-(3-fluorophenyl)-2-[methyl(2-{4-[(1s,3s)-3-hydroxycyclobutoxy]pyridin-2-yl}-5H,6H,7H-cyclopenta[d]pyrimidin-4-yl)amino]acetamide] | 6.7 |
| COc1ccc(NC(=O)CN(C)c2nc(-c3cc(O[C@@H]4CCOC4)ccn3)nc3c2CCC3)cn1 [Compound 346, N-(6-methoxypyridin-3-yl)-2-[methyl(2-{4-[(3R)-oxolan-3-yloxy]pyridin-2-yl}-5H,6H,7H-cyclopenta[d]pyrimidin-4-yl)amino]acetamide] | 7.6 |
| COc1ccc(NC(=O)CN(C)c2nc(-c3cc(O[C@H]4CCOC4)ccn3)nc3c2CCC3)cn1 [Compound 347] | 7.6 |
| CN(C)CCOc1ccnc(-c2nc3c(c(N(C)CC(=O)NC(C)(C)C)n2)CCC3)c1 [Compound 348, N-tert-butyl-2-[(2-{4-[2-(dimethylamino)ethoxy]pyridin-2-yl}-5H,6H,7H-cyclopenta[d]pyrimidin-4-yl)(methyl)amino]acetamide] | 8.0 |
| CN(CC(=O)NC12CC(C1)C2)c1nc(-c2cc(OCCO)ccn2)nc2c1CCC2 [Compound 349, N-{bicyclo[1.1.1]pentan-1-yl}-2-({2-[4-(2-hydroxyethoxy)pyridin-2-yl]-5H,6H,7H-cyclopenta[d]pyrimidin-4-yl}(methyl)amino)acetamide] | 7.8 |
| Cc1cc(NC(=O)CN(C)c2nc(-c3cc(OCCO)ccn3)nc3c2CCC3)sn1 [Compound 350, 2-({2-[4-(2-hydroxyethoxy)pyridin-2-yl]-5H,6H,7H-cyclopenta[d]pyrimidin-4-yl}(methyl)amino)-N-(3-methyl-1,2-thiaozl-5-yl)acetamide] | 7.7 |

Next, values leading:

| pEC50 | Structure (SMILES) |
| --- | --- |
| 7.6 | CN(Cc1ncn(-c2cccc(F)c2)n1)c1nc(-c2cc(OCCO)ccn2)nc2c1CCC2 [Compound 351, 2-({2-[4-({[1-(3-fluorophenyl)-1H-1,2,4-triazol-3-yl]methyl}(methyl)amino)-5H,6H,7H-cyclopenta[d]pyrimidin-2-yl]pyridin-4-yl}oxy)ethan-1-ol] |
| 7.6 | CN(CC(=O)NC(C)(C)C)c1nc(-c2cc(-c3cnn(C)c3)ccn2)nc2c1CCC2 [Compound 352, N-tert-butyl-2-[methyl({2-[4-(1-methyl-1H-pyrazol-4-yl)pyridin-2-yl]-5H,6H,7H-cyclopenta[d]pyrimidin-4-yl})amino]acetamide] |
| 7.8 | CN(CC(=O)Nc1cnn(C2CC2)c1)c1nc(-c2cc(OCCO)ccn2)nc2c1CCC2 [Compound 353, N-(1-cyclopropyl-1H-pyrazol-4-yl)-2-({2-[4-(2-hydroxyethoxy)pyridin-2-yl]-5H,6H,7H-cyclopenta[d]pyrimidin-4-yl}(methyl)amino)acetamide] |
| 7.7 | CN(CC(=O)N1CCCC1)c1nc(-c2cc(OCCO)ccn2)nc2c1CCC2 [Compound 354, 2-({2-[4-(2-hydroxyethoxy)pyridin-2-yl]-5H,6H,7H-cyclopenta[d]pyrimidin-4-yl}(methyl)amino)-1-(pyrrolidin-1-yl)ethan-1-one] |
| 7.7 | CN(CC(=O)N1CCC(F)(F)CC1)c1nc(-c2cc(OCCO)ccn2)nc2c1CCC2 [Compound 355, 1-(4,4-difluoropiperidin-1-yl)-2-({2-[4-(2-hydroxyethoxy)pyridin-2-yl]-5H,6H,7H-cyclopenta[d]pyrimidin-4-yl}(methyl)amino)ethan-1-one] |
| 8.3 | CC(=O)NCCOc1ccnc(-c2nc3c(c(N(C)CC(=O)Nc4cccc(F)c4)n2)CCC3)c1 [Compound 356, 2-({2-[4-(2-acetamidoethoxy)pyridin-2-yl]-5H,6H,7H-cyclopenta[d]pyrimidin-4-yl}(methyl)amino)-N-(3-fluorophenyl)acetamide] |
| 7.7 | CN(CC(=O)N1CCCCCC1)c1nc(-c2cc(OCCO)ccn2)nc2c1CCC2 [Compound 357, 1-(azepan-1-yl)-2-({2-[4-(2-hydroxyethoxy)pyridin-2-yl]-5H,6H,7H-cyclopenta[d]pyrimidin-4-yl}(methyl)amino)ethan-1-one] |
| 7.7 | CN(CC(=O)N1CCCCCC1)c1nc(-c2cc(OC3COC3)ccn2)nc2c1CCC2 [Compound 358, 1-(azepan-1-yl)-2-[methyl({2-[4-(oxetan-3-yloxy)pyridin-2-yl]-5H,6H,7H-cyclopenta[d]pyrimidin-4-yl})amino]ethan-1-one] |
| 7.5 | CN(CC(=O)N1CCC(F)CC1)c1nc(-c2cc(OCCO)ccn2)nc2c1CCC2 [Compound 359, 1-(4-fluoropiperidin-1-yl)-2-({2-[4-(2-hydroxyethoxy)pyridin-2-yl]-5H,6H,7H-cyclopenta[d]pyrimidin-4-yl}(methyl)amino)ethan-1-one] |
| 7.8 | CCN(CC(=O)NC(C)(C)C)c1nc(-c2cc(OCCO)ccn2)nc2c1CCC2 [Compound 360, N-tert-butyl-2-[ethyl({2-[4-(2-hydroxyethoxy)pyridin-2-yl]-5H,6H,7H-cyclopenta[d]pyrimidin-4-yl})amino]acetamide] |
| 8.1 | CN(CC(=O)NC(C)(C)C)c1nc(-c2cc(OCCO)ccn2)nc2c1C(C)(C)CC2 [Compound 361, N-tert-butyl-2-({2-[4-(2-hydroxyethoxy)pyridin-2-yl]-5,5-dimethyl-5H,6H,7H-cyclopenta[d]pyrimidin-4-yl}(methyl)amino)acetamide] |
